Source: patent US20250325491A1, “POLYVALENT MOLECULE BASED LIPID NANOPARTICLES FOR NUCLEIC ACID DELIVERY” (Bio-TRIP B.V., priority 2022, published 2025)
Like-named read-outs stand apart in the source and are kept apart here.

What was measured:
[1] = Dynamic light scattering (DLS) of nanoparticles; assay type: physicochemical; conditions: siRNA-aNPs containing the polyvalent material (Table S3); SD over individual repeats
Description: The hydrodynamic diameter of the formulated particles was determined by a number-weighted mean diameter provided by dynamic light scattering (DLS) using a Zetasizer Nano ZS in combination with a Malvern Zetasizer NanoSampler (Malvern Instruments, Worcestshire, UK). The size dispersity was measured as the poly dispersity index (PDI). For the DLS measurements, 100 μl of the formulated nanoparticle was diluted into 700 μl of PBS (137 mM NaCl, 2.7 mM KCl, 10 mM Na2HPO4 and 1.8 mM KH2PO4) and equilibrated at room temperature before the analysis. Each sample was measured 5 times, 10 runs of each 10 seconds, at wavelength 633 nm, without fixing the attenuator and measurement position.

[2] = Solubility of the polyvalent molecules in ethanol, iso-propanol and tri-caprylin
Description: The solubility can be checked by stirring about 20 mg of the polyvalent molecule in 1 gram of tricaprylin, ethanol or iso-propanol, and assessing whether all material spontaneously dissolves to create a clear/transparent solution (with a concentration of about 2 w/w %). The test can be done at about 20 degrees centigrade (room temperature) or at about 37 degrees centigrade.
Spontaneous dissolution upon stirring at room temperature giving a clear solution is a mark for solubility.

[3] = Stability of nanoparticle formulations (phase separation on dialysis or storage); assay type: physicochemical; design: key to phase separation of siRNA-aNPs (Table S4): *: Indicates phase separation after two days of storage in the refrigerator at 4° C; key to phase separation of siRNA-aNPs (footnote mark, Table S5): *: Indicates phase separation after two days storage in the fridge at 4° C.; **: Indicates phase separation after overnight dialysis; conditions: siRNA-aNPs containing the polyvalent material; for phase separation of siRNA-aNPs (footnote mark, Table S5): overnight dialysis or storage at 4° C; for phase separation of siRNA-aNPs (Table S4): storage in the refrigerator at 4° C
RAW 264.7 cell line = test: MTS cytotoxicity assay; assay type: cell-based; conditions: RAW 264.7 cell line exposed to siRNA-aNPs with increasing amounts of the polyvalent molecule (FIG. 10)
Description: MTS assays were carried out on multiple apolipoprotein nanoparticles (aNPs) of the invention. These assays were executed in line with protocols that are known in the art.

[4] = Cryo-TEM of nanoparticles; assay type: physicochemical
Description: Size and shape of the nanoparticles was also assessed by cryo-transmission electron microscopy (cryo-TEM). The surface of 200-mesh lacey carbon supported copper grids (Electron Microscopy Sciences) was plasma charged for 40 seconds using a carbon coater (Cressington 208). Subsequently, 3 μl of nanoparticle sample (˜1 mg protein/ml) was pipetted on a grid and vitrified into a thin film by plunge vitrification in liquid ethane. This step was performed by using an automated robot (FEI Vitrobot Mark IV). Cryo-TEM imaging was acquired on the cryo-transmission electron microscope TITAN (Thermo Fisher), equipped with a field emission gun (FEG), a post-column Gatan imaging filter (model 2002) and a post-GIF 2 k×2 k Gatan CCD camera (model 794). The imaging was performed at 300 kV acceleration voltage in bright-field TEM mode with zero-loss energy filtering at 24,000× magnification (dose rate of 11.8 e−/Å2·s), and 1s acquisition time. Pictures and results are reported in Table S6, FIG. 7, FIG. 8, FIG. 9 (A), FIG. 15.

[5] = 20 mg material per gram of solvent, spontaneous dissolution upon stirring giving a clear solution

| SMILES | DLS Hydrodynamic diameter (number mean) [1] [nm] | DLS PDI [1] | solubility in ethanol, iso-propanol and tri-caprylin [2, 5] | other results |
| --- | --- | --- | --- | --- |
| CCCCCCCCC(O)CN(CCCN(C)CCCN(CC(O)CCCCCCCC)CC(O)CCCCCCCC)CC(O)CCCCCCCC (mixture of isomers) [Example G9, Bis(3-aminopropyl)methylamine-EPX-C8-4] | 73 ± 10 | 0.18 ± 0.08 | – | – |
| CCCCCCCCCCCCCCOC(=O)CCN(CCCN(CCCCN(CCCN(CCC(=O)OCCCCCCCCCCCCCC)C(C)=O)CCCN(CCC(=O)OCCCCCCCCCCCCCC)C(C)=O)CCCN(CCC(=O)OCCCCCCCCCCCCCC)C(C)=O)C(C)=O [Example B2, G1-ACR-nC14-4/Ac-4] | 67 | 0.09 | soluble in all three solvents at room temperature | phase separation of siRNA-aNPs (footnote mark, Table S5) [3]: B2 *; phase separation of siRNA-aNPs (Table S4) [3]: B2 * |
| CCCCCCCCOC(=O)CCN(CCCN(C)CCCN(CCC(=O)OCCCCCCCC)CCC(=O)OCCCCCCCC)CCC(=O)OCCCCCCCC [Example A11, Bis-(3-aminopropyl)methylamine-ACR-C8-4] | 136 ± 45 | 0.14 ± 0.04 | soluble in all three solvents at room temperature | – |
| CCCCCCCCCCCCCCOC(=O)CCN(CCCN(CCCCN(CCCN(CCC(=O)OCCCCCCCCCCCCCC)CCC(=O)OCCCCCCCCCCCCCC)CCCN(CCC(=O)OCCCCCCCCCCCCCC)CCC(=O)OCCCCCCCCCCCCCC)CCCN(CCC(=O)OCCCCCCCCCCCCCC)CCC(=O)OCCCCCCCCCCCCCC)CCC(=O)OCCCCCCCCCCCCCC [Example A3, G1-ACR-nC14-8] | 55 ± 0.7 | 0.14 ± 0.01 | – | – |
| CCCCCCCCCCC(O)CN(CCCN(CCCCN(CCCN(CC(O)CCCCCCCCCC)CC(O)CCCCCCCCCC)CCCN(CC(O)CCCCCCCCCC)CC(O)CCCCCCCCCC)CCCN(CC(O)CCCCCCCCCC)CC(O)CCCCCCCCCC)CC(O)CCCCCCCCCC (mixture of isomers) [Example G2, G1-EPX-nC10-8] | 55 ± 4 | 0.10 ± 0.01 | soluble in all three solvents at room temperature | – |
| CCCCCCCCCCCCCCOC(=O)CCN(C)CCCN(CCCCN(CCCN(C)CCC(=O)OCCCCCCCCCCCCCC)CCCN(C)CCC(=O)OCCCCCCCCCCCCCC)CCCN(C)CCC(=O)OCCCCCCCCCCCCCC [Example H1, G1-ACR-nC14-4/CH3-4] | 66 ± 7 | 0.45 ± 0.43 | – | phase separation of siRNA-aNPs (footnote mark, Table S5) [3]: H1 *; phase separation of siRNA-aNPs (Table S4) [3]: H1 * |
| CCCCCCCCC(O)CN(CCCN(CC(O)CCCCCCCC)CC(O)CCCCCCCC)CCCN(CC(O)CCCCCCCC)CC(O)CCCCCCCC (mixture of isomers) [Example G7, Bis(3-aminopropyl)amine-EPX-C8-5] | 54 ± 1 | 0.2 ± 0.06 | soluble in all three solvents at room temperature | – |
| CCCCCCCCOC(=O)CCN(CCC(=O)OCCCCCCCC)CCN(CCC(=O)OCCCCCCCC)CCN(CCC(=O)OCCCCCCCC)CCC(=O)OCCCCCCCC [Example A10, Bis(2-aminoethyl)amine-ACR-C8-5] | – | – | – | solubility in ethanol, iso-propanol and tri-caprylin [2]: soluble in all three solvents at room temperature |
| CCCCCCCCOC(=O)CCN(CCCN(CCC(=O)OCCCCCCCC)CCC(=O)OCCCCCCCC)CCCN(CCC(=O)OCCCCCCCC)CCC(=O)OCCCCCCCC [Example A9, Bis(3-Aminopropyl)Amine-ACR-C8-5] | – | – | soluble in all three solvents at room temperature | – |
| CCCCCCCCC=CCCCCCCCC(=O)NC(CCCNC(=N)N)C(=O)NCCCN(CCCCN(CCCNC(=O)C(CCCNC(=N)N)NC(=O)CCCCCCCC=CCCCCCCCC)CCCNC(=O)C(CCCNC(=N)N)NC(=O)CCCCCCCC=CCCCCCCCC)CCCNC(=O)C(CCCNC(=N)N)NC(=O)CCCCCCCC=CCCCCCCCC (centres unmarked) [Example J11, G1-Arginine-Oleate-4] | – | – | soluble in all three solvents at room temperature | – |
| CC(C)CCCCCCCOC(=O)CCN(CCCN(CCCCN(CCCN(CCC(=O)OCCCCCCCC(C)C)CCC(=O)OCCCCCCCC(C)C)CCCN(CCC(=O)OCCCCCCCC(C)C)CCC(=O)OCCCCCCCC(C)C)CCCN(CCC(=O)OCCCCCCCC(C)C)CCC(=O)OCCCCCCCC(C)C)CCC(=O)OCCCCCCCC(C)C [Example A6, G1-ACR-isoC10-8] | 48 ± 1 | 0.14 ± 0.02 | – | cytotoxicity (MTS assay) (RAW 264.7 cell line): do not exercise cytotoxicity; diameter of siRNA-aNPs visible in cryo-TEM and immuno-gold staining TEM images ([4]; siRNA-aNPs containing A6 (FIG. 9)): about 50 nm; Cryo-TEM Diameter ([4]; siRNA-aNPs containing the polyvalent material, SD over n individual particles): 53 ± 11 nm; Cryo-TEM PDI ([4]; siRNA-aNPs containing the polyvalent material, n individual particles): 0.02 |
| CCCCCCCCC=CCCCCCCCC(=O)NCCCCC(N)C(=O)NCCCN(CCCCN(CCCNC(=O)C(N)CCCCNC(=O)CCCCCCCC=CCCCCCCCC)CCCNC(=O)C(N)CCCCNC(=O)CCCCCCCC=CCCCCCCCC)CCCNC(=O)C(N)CCCCNC(=O)CCCCCCCC=CCCCCCCCC (centres unmarked) [Example J10, G1-Lysine-N^6-Oleate-4] | – | – | soluble in all three solvents at room temperature | – |
| CCCCCCCCC(O)CN(CCN(CC(O)CCCCCCCC)CC(O)CCCCCCCC)CCN(CC(O)CCCCCCCC)CC(O)CCCCCCCC (mixture of isomers) [Example G8, Bis(2-amino-ethyl)amine-EPX-C8-5] | 84 ± 45 | 0.2 ± 0.05 | soluble in all three solvents at room temperature | – |
